Here are results for 13 compounds from patent publication US4665085A, “Amidines, preparation process and therapeutical application thereof” (Laboratoires Chauvin-Blache, priority 1983, dated 1987).

Data set [1] relates to male Swiss mice (NMRI-Han). Description: Acute toxicity by the intraperitoneal route. It counts as in vivo. The settings on record: observation time 48 hours. The procedure:
The mice used are male Swiss mice (NMRI-Han) with an average body weight of 25 g.
The acute toxicity investigation was effected by the intraperitoneal route.
The compounds were injected in aqueous solution, at three dosage levels: 50, 100 and 200 mg/kg.
Table below gives the results obtained with compounds of the formula (I), after an observation time of 48 hours.
The results are expressed as number of dead animals vs. the total number of animals treated.

Data set [2] concerns the target T1, platelet α2 adrenergic receptors (Oryctolagus cuniculus, UniProt Q5ZQK3).
T1 construct: from tissue; host or cells: platelet membranes from blood of male New Zealand albino rabbits
T1 sequence (Q5ZQK3 1-451): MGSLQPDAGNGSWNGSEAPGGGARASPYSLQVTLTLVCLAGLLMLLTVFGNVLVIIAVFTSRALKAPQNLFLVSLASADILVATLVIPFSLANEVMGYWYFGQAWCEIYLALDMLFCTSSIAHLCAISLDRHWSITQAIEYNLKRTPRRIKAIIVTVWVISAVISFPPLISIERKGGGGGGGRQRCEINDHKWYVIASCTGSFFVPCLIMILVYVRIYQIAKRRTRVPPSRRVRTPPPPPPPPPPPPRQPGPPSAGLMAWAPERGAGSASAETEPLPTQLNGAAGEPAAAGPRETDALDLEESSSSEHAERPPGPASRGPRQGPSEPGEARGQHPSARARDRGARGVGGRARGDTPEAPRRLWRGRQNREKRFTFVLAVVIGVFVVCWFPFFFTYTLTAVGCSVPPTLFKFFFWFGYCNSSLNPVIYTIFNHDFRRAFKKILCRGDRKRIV
Description: Affinity for platelet α2 adrenergic receptors (inhibition of specific linking of tritiated dihydroergocryptine). It counts as binding. The settings on record: rabbit platelet membranes, tritiated DHE 7 nM, 30 minutes at 25° C.; read-out: CE50 (dosage required to inhibit 50 percent of the linking of tritiated DHE). As for the experimental part: 1. Affinity for platelet α2 adrenergic receptors
The compounds of the formula (I) were tested on the platelet adrenergic receptor of rabbit which is exclusively of α2 type (MICHEL T., Nature, 288, (5792) 709, 1980).
The affinity of said compounds for the α2 receptors is determined by measuring the inhibition of the specific linking of tritiated dihydroergocryptine (DHE) by the test compounds.
The rabbits used are male New-Zealand albino rabbits
Blood is taken by the intracardiac route, over ACD (an anticoagulant consisting of an aqueous solution containing 0.27 g citric acid, 0.5 g trisodium citrate and 0.02 g glucose per 20 ml water) at a rate of 1 volume ACD per 6 volumes blood.
The blood is centrifuged 10 minutes at 280 g and the supernatant (PRP) is collected. The PRP is centrifuged 15 minutes at 2000 g.
The platelet sediment is washed twice with buffer I (Tris 50 mM, NaCl 150 mM, EDTA 20 mM, pH 7.5) and is then re-suspended in buffer II (Tris 50 mM, EDTA 5 mM, pH 7.5).
This suspension is frozen at -40° C., and is then defrosted; the procedure is repeated twice. The suspension is then homogenized, after which it is centrifuged 10 minutes at 40,000 g, at 4° C.
The centrifugation sediment is washed with buffer II and is then re-suspended in this same buffer so that the final protein concentration is of the order of 1.5 mg/ml.
The inhibition tests are effected in a final volume of 0.2 ml of buffer II containing the tritiated DHE (7 nM) and varying concentrations of test compound.
The reaction is initiated by adding 0.2 mg proteins and is continued for 30 minutes at 25° C.
The incubation is terminated by adding 2 ml buffer II and by rapidly filtering this mixture in vacuo, through Whatman GF/C filters. The filters are rapidly washed with buffer II and the radioactivity bound to the filter is determined by liquid scintillation.
The dosage required to inhibit 50 percent of the linking of the […] DHE (CE50) is calculated for each of the test compounds.

The subject of a further data set is male New-Zealand rabbits. The data set is described as follows: Hypotensive activity in rabbits after topical administration (intraocular pressure). The format is in vivo. The settings on record: rabbit; for Duration of the effect / t (time corresponding to the maximum effect) / Δmax (maximum decrease of the intraocular pressure with respect to the basic value at time zero): 0.5% isotonic aqueous solution instilled in an eye; for effect on pressure in the contralateral eye (evidence of an action at the level of the central nervous system): same experimental conditions (topical instillation). The procedure: 2. Hypotensive activity in rabbits, after topical administration
The experiments were conducted using male New-Zealand rabbits (2 kg body weight) given "ad libitum" food and drink.
The animals are given a few days to get accustomed to the animal house, are conditioned to stabling in restraining boxes, and to the ocular pressure determinations, in order to prevent pressure deviations induced by stress and handling.
The intraocular pressure is determined with an ALCON aplanation pneumatonograph, standardized by means of an isolated cornea of rabbit, under water pressure.
The compounds are tested in isotonic aqueous solution, at pH 7.25 μl of an 0.5% solution are instilled in an eye, and the intraocular pressure is determined as a function of time.
Table below gives the maximum decrease of the intraocular pressure (Δ max) with respect to the basic value at time zero (time of instillation), the time corresponding to this maximum effect (t), and the total duration of the effect.

Regarding `Cc1cc(N)ccc1C=NNC(=N)N` [Compound 8], the results for the “number of dead animals vs. total number of animals treated” value in data set [1] (100 mg/kg) and in data set [1] (200 mg/kg) were 0/3 and 3/3, respectively. Further, the IC50 in data set [2] is 32 µM.

For `CC(=NNC(=N)N)c1ccc(O)cc1C` [Compound 10], the “number of dead animals vs. total number of animals treated” value in data set [1] (100 mg/kg) is 0/3; in data set [1] (200 mg/kg), 2/3. Also, the IC50 in data set [2] was found to be 11 µM.

For the compound `Cc1cc(N)ccc1C=NNC1=NCCN1` [Compound 2], in data set [1] (100 mg/kg), the “number of dead animals vs. total number of animals treated” value was 0/3. Moreover, the “number of dead animals vs. total number of animals treated” value in data set [1] (200 mg/kg) is given as 3/3. In addition, in the data set on male New-Zealand rabbits, the “Duration of the effect” value is 300 mn, the “t (time corresponding to the maximum effect)” value is given as 60 mn and the “Δmax (maximum decrease of the intraocular pressure with respect to the basic value at time zero)” value is recorded as -4.12 ± 0.95 mm Hg. For the same compound, in data set [2], the IC50 turned out to be 10 µM.

Take `COc1cc(O)ccc1C=NNC(=N)N` [Compound 9]: the “number of dead animals vs. total number of animals treated” value in data set [1] (50 mg/kg) was 0/3; in data set [1] (100 mg/kg), 3/3; in data set [1] (200 mg/kg), 3/3. Besides, the IC50 in data set [2] worked out at 8 µM.

As for `Clc1cccc(Cl)c1N=C1NCCN1` [clonidine, 2,6-dichloro-anilino-2-imidazoline, reference compound], in the data set on male New-Zealand rabbits, the “effect on pressure in the contralateral eye (evidence of an action at the level of the central nervous system)” value is given as “concomitant decrease of the pressure in the contralateral eye”.

On to `CC(=NNC1=NCCN1)c1ccc(O)cc1C` [Compound 3], for which the “number of dead animals vs. total number of animals treated” value in data set [1] (100 mg/kg) is on record as 0/3. In data set [1] (200 mg/kg), the “number of dead animals vs. total number of animals treated” value was 3/3. In addition, in the data set with male New-Zealand rabbits, the “Duration of the effect” value was found to be 300 mn, the “t (time corresponding to the maximum effect)” value was 30 mn and the “Δmax (maximum decrease of the intraocular pressure with respect to the basic value at time zero)” value is reported as -1.83 ± 1 mm Hg. The IC50 in data set [2] came to 5.6 µM.

With `Cc1cc(O)ccc1C=NNC(=N)N` [Compound 7], the “number of dead animals vs. total number of animals treated” value in data set [1] (100 mg/kg) is on record as 0/3. The “number of dead animals vs. total number of animals treated” value in data set [1] (200 mg/kg) was 3/3. In the data set on male New-Zealand rabbits, the “t (time corresponding to the maximum effect)” value was 60 mn and the “Δmax (maximum decrease of the intraocular pressure with respect to the basic value at time zero)” value is -0.25 ± 1.7 mm Hg. The IC50 in data set [2] turned out to be 6.3 µM.

`COc1cc(O)ccc1C(C)=NNC(=N)N` [Compound 11]: the IC50 in data set [2] is 1.3 µM.

As for `Cc1cc(O)ccc1C=NNC1=NCCN1` [Compound 1], in data set [1] (100 mg/kg), the “number of dead animals vs. total number of animals treated” value is 0/3. Further, the “number of dead animals vs. total number of animals treated” value in data set [1] (200 mg/kg) is on record as 0/3. Moreover, in the data set with male New-Zealand rabbits, the “Duration of the effect” value was 360 mn, the “t (time corresponding to the maximum effect)” value amounted to 60 mn and the “Δmax (maximum decrease of the intraocular pressure with respect to the basic value at time zero)” value is listed as -3.12 ± 2.21 mm Hg. Further, the IC50 in data set [2] is 3 µM.

Consider `COc1cc(O)ccc1C=NNC1=NCCN1` [Compound 4], for which, in data set [1] (100 mg/kg), the “number of dead animals vs. total number of animals treated” value is recorded as 0/3. Further, in data set [1] (200 mg/kg), the “number of dead animals vs. total number of animals treated” value was 0/3. For the same compound, in the data set with male New-Zealand rabbits, the “Duration of the effect” value came out at 400 mn, the “t (time corresponding to the maximum effect)” value came out at 60 mn and the “Δmax (maximum decrease of the intraocular pressure with respect to the basic value at time zero)” value is reported as -2.5 ± 0.57 mm Hg. In addition, the IC50 in data set [2] is 3 µM.

Take `COc1cc(O)ccc1C(C)=NNC1=NCCN1` [Compound 6]: in data set [2], the IC50 came out at 2.5 µM.

On to `COc1cc(N)ccc1C=NNC1=NCCN1` [Compound 5], for which, in data set [1] (100 mg/kg), the “number of dead animals vs. total number of animals treated” value is recorded as 0/3. In addition, in the data set with male New-Zealand rabbits, the “Duration of the effect” value was 360 mn, the “t (time corresponding to the maximum effect)” value was 120 mn and the “Δmax (maximum decrease of the intraocular pressure with respect to the basic value at time zero)” value is -3.9 ± 0.5 mm Hg. In addition, the IC50 in data set [2] was 14 µM.

Take `Clc1cccc(Cl)c1C=NNC1=NCCN1` [(2,6-dichlorobenzylidene-hydrazino)-2-imidazoline, reference compound]: the “effect on pressure in the contralateral eye (evidence of an action at the level of the central nervous system)” value with male New-Zealand rabbits is listed as “concomitant decrease of the pressure in the contralateral eye”.
